We go through ten compounds from patent US7217701B2, “Intracellular calcium concentration increase inhibitors” (Katsuhiko Mikoshiba, priority 2001, dated 2007).

Assay [1] deals with T1, calcium release by IP3 (IP3 receptor) (Mus musculus, UniProt P11881).
T1 construct: from tissue; host or cells: mouse cerebellum microsomes
Put plainly: Inhibitory activity against calcium release by IP3 (cerebellum microsomes, fura2). The class given is biochemical. The procedure:
Furthermore, the supernatant was centrifuged (105,000 g, for 60 minutes). […] Then IP3 was added thereto, and the released calcium was measured by the measurement of the fluorescence of 500 nm obtained at 2-wavelength excitation of 340 nm and 380 nm, and the fluorescence ratio F=340/380.
(§1) 2-aminoethyl diphenylborinate was used as a comparative compound.

In assay [2] the test system is capacitative calcium entry in cell strain deficient of IP3 receptors produced from DT40. The assay is described as follows: Inhibitory activity against capacitative calcium entry (fura-2 fluorescence ratio). The class given is cell-based, chickens. Particulars: Gallus gallus. The procedure: Fura-2 acetoxymethylester was introduced to the cell strain deficient of IP3 receptors produced from the cultivated cell strain DT40 from chickens. The intracellular calcium concentration was measured by the measurement of the fluorescence of 510 nm obtained at 2-wavelength excitation of 340 nm and 380 nm, and its fluorescence ratio F=340/380.
Intracellular calcium store was depleted by activating tapsigalguine (inhibitor of the endoplasmic reticulum calcium pump) without the presence of the calcium ion in the extracellular fluid.
as §1

[3] abbreviates: mouse cerebellum microsomes, calcium released with 30 nM of IP3 defined as 100%, read-out: IC50.
Where [4] appears, read: increase rate of intracellular calcium concentration on adding 2 mM calcium chloride after store depletion with tapsigalguine, IP3 receptor-deficient DT40 cells, read-out: IC50.

Like-named read-outs stand apart in the source and are kept apart here.

T1 sequence (P11881 whole entry): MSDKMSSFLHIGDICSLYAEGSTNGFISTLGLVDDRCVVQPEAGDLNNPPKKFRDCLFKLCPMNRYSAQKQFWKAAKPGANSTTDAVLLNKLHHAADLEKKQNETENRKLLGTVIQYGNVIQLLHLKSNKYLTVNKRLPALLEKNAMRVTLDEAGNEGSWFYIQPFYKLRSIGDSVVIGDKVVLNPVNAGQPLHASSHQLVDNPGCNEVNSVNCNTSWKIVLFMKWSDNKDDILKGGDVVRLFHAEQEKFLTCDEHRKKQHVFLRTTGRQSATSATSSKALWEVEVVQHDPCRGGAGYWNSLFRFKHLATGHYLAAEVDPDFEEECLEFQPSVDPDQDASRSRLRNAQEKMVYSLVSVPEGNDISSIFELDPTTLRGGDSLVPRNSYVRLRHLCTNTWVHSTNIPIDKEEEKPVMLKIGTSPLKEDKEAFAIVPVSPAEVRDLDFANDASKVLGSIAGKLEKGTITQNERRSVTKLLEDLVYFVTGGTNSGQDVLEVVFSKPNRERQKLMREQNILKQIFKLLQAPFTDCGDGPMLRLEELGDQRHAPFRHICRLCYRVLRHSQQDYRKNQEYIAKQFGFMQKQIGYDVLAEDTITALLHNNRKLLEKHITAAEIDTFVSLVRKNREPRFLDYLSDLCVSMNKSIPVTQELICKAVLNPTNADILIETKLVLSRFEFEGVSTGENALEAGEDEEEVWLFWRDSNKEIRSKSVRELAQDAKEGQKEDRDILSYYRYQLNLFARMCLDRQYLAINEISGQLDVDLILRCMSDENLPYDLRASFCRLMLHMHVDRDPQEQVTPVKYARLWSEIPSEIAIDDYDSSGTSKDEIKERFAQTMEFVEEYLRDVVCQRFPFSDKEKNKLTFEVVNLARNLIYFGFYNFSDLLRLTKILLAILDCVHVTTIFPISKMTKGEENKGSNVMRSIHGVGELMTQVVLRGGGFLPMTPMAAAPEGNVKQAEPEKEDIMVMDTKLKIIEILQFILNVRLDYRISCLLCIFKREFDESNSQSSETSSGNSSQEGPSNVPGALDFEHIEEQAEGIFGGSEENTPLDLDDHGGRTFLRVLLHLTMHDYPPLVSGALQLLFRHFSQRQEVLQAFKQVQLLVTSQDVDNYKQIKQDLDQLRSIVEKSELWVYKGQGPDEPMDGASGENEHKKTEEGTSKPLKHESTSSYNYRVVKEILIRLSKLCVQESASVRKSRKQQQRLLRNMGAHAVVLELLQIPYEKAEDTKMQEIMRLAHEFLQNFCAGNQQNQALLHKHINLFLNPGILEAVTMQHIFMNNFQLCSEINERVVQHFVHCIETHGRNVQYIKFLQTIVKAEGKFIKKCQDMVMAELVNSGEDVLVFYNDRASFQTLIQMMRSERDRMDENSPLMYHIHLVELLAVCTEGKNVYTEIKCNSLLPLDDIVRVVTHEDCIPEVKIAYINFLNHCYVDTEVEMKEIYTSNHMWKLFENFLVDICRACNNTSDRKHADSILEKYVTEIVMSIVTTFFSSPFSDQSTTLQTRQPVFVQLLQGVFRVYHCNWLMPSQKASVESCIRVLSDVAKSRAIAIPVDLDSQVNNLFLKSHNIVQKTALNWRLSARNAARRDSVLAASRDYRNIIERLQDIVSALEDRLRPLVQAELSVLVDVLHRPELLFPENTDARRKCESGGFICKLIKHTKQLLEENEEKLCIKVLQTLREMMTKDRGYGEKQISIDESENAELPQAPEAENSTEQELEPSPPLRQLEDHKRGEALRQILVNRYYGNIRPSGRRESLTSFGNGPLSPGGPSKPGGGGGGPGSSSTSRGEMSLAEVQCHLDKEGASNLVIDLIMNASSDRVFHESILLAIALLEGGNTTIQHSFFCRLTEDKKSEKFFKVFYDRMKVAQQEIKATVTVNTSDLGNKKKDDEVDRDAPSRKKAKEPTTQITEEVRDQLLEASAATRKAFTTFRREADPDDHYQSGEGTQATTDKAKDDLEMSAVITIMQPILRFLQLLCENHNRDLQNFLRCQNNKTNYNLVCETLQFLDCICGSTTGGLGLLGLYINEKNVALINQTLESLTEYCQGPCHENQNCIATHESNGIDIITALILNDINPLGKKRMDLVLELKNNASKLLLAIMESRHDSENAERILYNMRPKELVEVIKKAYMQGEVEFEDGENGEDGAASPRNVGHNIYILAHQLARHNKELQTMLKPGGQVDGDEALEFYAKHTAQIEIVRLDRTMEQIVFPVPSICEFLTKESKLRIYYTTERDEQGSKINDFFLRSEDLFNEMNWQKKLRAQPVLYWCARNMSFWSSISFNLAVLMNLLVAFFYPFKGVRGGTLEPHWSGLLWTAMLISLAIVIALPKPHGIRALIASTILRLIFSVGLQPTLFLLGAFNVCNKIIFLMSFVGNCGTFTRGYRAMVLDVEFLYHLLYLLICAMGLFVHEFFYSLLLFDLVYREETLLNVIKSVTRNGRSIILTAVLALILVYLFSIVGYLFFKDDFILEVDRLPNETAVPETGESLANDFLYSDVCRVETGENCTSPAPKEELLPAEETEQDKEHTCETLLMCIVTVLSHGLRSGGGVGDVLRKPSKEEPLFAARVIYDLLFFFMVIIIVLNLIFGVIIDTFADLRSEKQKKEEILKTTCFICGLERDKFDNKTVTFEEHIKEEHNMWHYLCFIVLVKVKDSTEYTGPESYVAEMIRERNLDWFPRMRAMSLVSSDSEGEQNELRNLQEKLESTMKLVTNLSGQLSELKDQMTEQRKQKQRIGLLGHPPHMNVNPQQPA

Regarding `OB(c1ccc(Cl)cc1)c1ccc(COCc2ccccc2)cc1` [(3), (4-chlorophenyl)(4-benzyloxymethylphenyl)borate], in assay [1] (setting [3]), the IC50 – broadly, the midpoint of a concentration-inhibition curve – is 3 µM. As to `NCCOB(C1CCCC1)C1CCCC1` [(25), 2-aminoethyl dicyclopentylborate], the IC50 in assay [2] (setting [4]) was determined as 0.66 µM. As for `Cc1ccc(B(OCCN)c2ccc(C)c(Cl)c2)cc1Cl` [(30), 2-aminoethyl bis(3-chloro-4-methylphenyl)borate], in assay [1] (setting [3]), the IC50 came to 2.6 µM. On the same count and under the same terms, as for `CCOC(=O)N1CCC(NCC(OB(c2ccc(C)c(Cl)c2)c2ccc(C)c(Cl)c2)c2ccccc2)CC1` (stereo not shown) [(47), 1-phenyl-2-(1-(ethoxycarbonyl)-piperidine-4-ylamino)ethyl bis(3-chloro-4-methylphenyl)borate], the figure is 3.8 µM. As for `Cc1ccc(B(OC(CN(C)C)CN(C)C)c2ccc(C)c(Cl)c2)cc1Cl` [(60), 1-(dimethylaminomethyl)-2-dimethylaminoethyl bis(3-chloro-4-methylphenyl)borate], the IC50 in assay [2] (setting [4]) is 0.35 µM. Regarding `Cc1ccc(B(OC(c2ccc(C(F)(F)F)cc2)c2ccccn2)c2ccc(C)c(Cl)c2)cc1Cl` (stereo not shown) [(62), 1-(4-trifluoromethylphenyl)-1-(2-pyridyl)methyl bis(3-chloro-4-methylphenyl)borate], in assay [2] (setting [4]), the IC50 was 0.13 µM. Take `CC(C)(C)c1ccc(B(OCCN)c2ccc(Cl)cc2)cc1` [(84), 2-aminoethyl (4-chlorophenyl)(4-(1,1′-dimethylethyl)phenyl)borate]: the IC50 in assay [1] (setting [3]) is 4.5 µM. In the case of `NCCOB(c1ccccc1)c1ccccc1` [Comparative Compound, 2-aminoethyl diphenylborinate, reference compound], the IC50 in assay [1] was found to be 20 µM; in assay [2] (DT40) it was 5 µM. For the compound `Cc1ccc(B(OC(C)c2ccccn2)c2ccc(C)c(Cl)c2)cc1Cl` (stereo not shown) [Compound (53), 1-(2-pyridyl)ethyl bis(3-chloro-4-methylphenyl)borate], the IC50 in assay [1] (setting [3]) was found to be 3.6 µM; in assay [2] (setting [4]), 0.63 µM. The corresponding values for `NCCOB(c1ccccc1)c1ccc(COCc2ccc(B(OCCN)c3ccccc3)cc2)cc1` [Compound (90), bis[4-[(2-aminoethoxy)phenylboryl]benzyl]ether] are 6 µM and 0.059 µM.
